According to ChEMBL document CHEMBL1687837, “Roles of residues Cys69, Asn104, Phe160, Gly232, Ser237, and Asp240 in extended-spectrum beta-lactamase Toho-1” (2011):
In brackets after ≈: the same amount, converted by molar mass.

Columns and labels:
[1] = system: Escherichia coli; assay: Antibacterial activity against Escherichia coli AS226 after 18 hrs by broth microdilution method; format: functional; settings: AS226, 18 h
[2] = system: Escherichia coli; assay: Antibacterial activity against Escherichia coli AS226 carrying pBSDN104A mutant after 18 hrs by broth microdilution method; format: functional; settings: AS226, 18 h
[3] = system: Escherichia coli; assay: Antibacterial activity against Escherichia coli AS226 carrying pBSDD240A mutant after 18 hrs by broth microdilution method; format: functional; settings: AS226, 18 h
[4] = system: Escherichia coli; assay: Antibacterial activity against Escherichia coli AS226 carrying pBSD-H2 after 18 hrs by broth microdilution method; format: functional; settings: AS226, 18 h
[5] = system: Escherichia coli; assay: Antibacterial activity against Escherichia coli AS226 carrying pBSDN104D mutant after 18 hrs by broth microdilution method; format: functional; settings: AS226, 18 h
[6] = system: Escherichia coli; assay: Antibacterial activity against Escherichia coli AS226 carrying pBSDC69A mutant after 18 hrs by broth microdilution method; format: functional; settings: AS226, 18 h
[7] = system: Escherichia coli; assay: Antibacterial activity against Escherichia coli AS226 carrying pBSDD240S mutant after 18 hrs by broth microdilution method; format: functional; settings: AS226, 18 h
[8] = system: Escherichia coli; assay: Antibacterial activity against Escherichia coli AS226 carrying pBSD6 mutant after 18 hrs by broth microdilution method; format: functional; settings: AS226, 18 h
[9] = system: Escherichia coli; assay: Ratio of Kcat to Km for Escherichia coli beta-lactamase Toho-1 N104D mutant assessed as compound hydrolysis by spectrophotometry
[10] = system: Escherichia coli; assay: Activity of Escherichia coli beta-lactamase Toho-1 G232A mutant assessed as compound hydrolysis by spectrophotometry
[11] = system: Escherichia coli; assay: Activity of Escherichia coli beta-lactamase Toho-1 D240A mutant assessed as compound hydrolysis by spectrophotometry
[12] = system: Escherichia coli; assay: Ratio of Kcat to Km for Escherichia coli beta-lactamase Toho-1 N104A mutant assessed as compound hydrolysis by spectrophotometry
[13] = system: Escherichia coli; assay: Ratio of Kcat to Km for Escherichia coli beta-lactamase Toho-1 D240A mutant assessed as compound hydrolysis by spectrophotometry
[14] = system: Escherichia coli; assay: Activity of Escherichia coli beta-lactamase Toho-1 F160T mutant assessed as compound hydrolysis by spectrophotometry
[15] = system: Escherichia coli; assay: Ratio of Kcat to Km for Escherichia coli beta-lactamase Toho-1 […] mutant assessed as compound hydrolysis by spectrophotometry
[16] = system: Escherichia coli; assay: Antibacterial activity against Escherichia coli AS226 carrying pBSDS237A mutant after 18 hrs by broth microdilution method; format: functional; settings: AS226, 18 h
[17] = system: Escherichia coli; assay: Activity of Escherichia coli beta-lactamase Toho-1 D240S mutant assessed as compound hydrolysis by spectrophotometry
[18] = system: Escherichia coli; assay: Activity of Escherichia coli beta-lactamase Toho-1 C69A mutant assessed as compound hydrolysis by spectrophotometry
[19] = system: Escherichia coli; assay: Ratio of Kcat to Km for Escherichia coli beta-lactamase Toho-1 D240S mutant assessed as compound hydrolysis by spectrophotometry
[20] = system: Escherichia coli; assay: Ratio of Kcat to Km for Escherichia coli beta-lactamase Toho-1 C69A mutant assessed as compound hydrolysis by spectrophotometry
[21] = system: Escherichia coli; assay: Activity of Escherichia coli beta-lactamase Toho-1 […] mutant assessed as compound hydrolysis by spectrophotometry
[22] = system: Escherichia coli; assay: Antibacterial activity against Escherichia coli AS226 carrying pBSDF160T mutant after 18 hrs by broth microdilution method; format: functional; settings: AS226, 18 h
[23] = system: Escherichia coli; assay: Ratio of Kcat to Km for Escherichia coli beta-lactamase Toho-1 F160T mutant assessed as compound hydrolysis by spectrophotometry
[24] = system: Escherichia coli; assay: Ratio of Kcat to Km for Escherichia coli beta-lactamase Toho-1 G232A mutant assessed as compound hydrolysis by spectrophotometry
[25] = system: Escherichia coli; assay: Activity of Escherichia coli beta-lactamase Toho-1 N104A mutant assessed as compound hydrolysis by spectrophotometry
[26] = system: Escherichia coli; assay: Activity of Escherichia coli beta-lactamase Toho-1 N104D mutant assessed as compound hydrolysis by spectrophotometry

SMILES | MIC [1] [µg/mL] | MIC [2] [µg/mL] | MIC [3] [µg/mL] | MIC [4] [µg/mL] | MIC [5] [µg/mL] | MIC [6] [µg/mL] | MIC [7] [µg/mL] | MIC [8] [µg/mL] | kcat/Km [9] [×10⁵ /s/M] | Km [10] [µM] | kcat [10] [s⁻¹] | Km [11] [µM] | kcat [11] [s⁻¹] | kcat/Km [12] [×10⁵ /s/M] | kcat/Km [13] | Km [14] [µM] | kcat [14] [s⁻¹] | kcat/Km [15] | MIC [16] [µg/mL] | MIC [22] [µg/mL] | other results
C[C@@H](O)[C@H]1C(=O)N2C(C(=O)O)=C(SCCNC=N)C[C@H]12 [IMIPENEM ANHYDROUS] | < 0.125 | 0.125 (≈ 0.418 µM) | 0.125 (≈ 0.418 µM) | < 0.125 | 0.125 (≈ 0.418 µM) |  |  |  |  |  |  |  |  |  |  |  |  |  |  |  | 
CO/N=C(\C(=O)N[C@@H]1C(=O)N2C(C(=O)O)=C(COC(C)=O)CS[C@H]12)c1csc(N)n1 [CEFOTAXIME] | < 0.125 | 16 (≈ 35.1 µM) | 512 (≈ 1120 µM) | 256 (≈ 562 µM) | 256 (≈ 562 µM) | 1020 (≈ 2250 µM) | 1020 (≈ 2250 µM) | 2 (≈ 4.39 µM) | 2.4 | 259 | 440 | 360 | 440 | 1.2 | 1.3 ×10⁶ /s/M | 360 | 410 | 4.1 ×10⁵ /s/M | 32 (≈ 70.3 µM) | 256 (≈ 562 µM) | Km [17]: 320 µM; kcat [17]: 370 s⁻¹; Km [18]: 350 µM; kcat [18]: 370 s⁻¹; kcat/Km [19]: 1.2 ×10⁶ /s/M; kcat/Km [20]: 1 ×10⁶ /s/M; Km [21]: 230 µM; kcat [21]: 94 s⁻¹; kcat/Km [23]: 1.2 ×10⁶ /s/M; kcat/Km [24]: 1.7 ×10⁶ /s/M
CO[C@@]1(NC(=O)Cc2cccs2)C(=O)N2C(C(=O)O)=C(COC(N)=O)CS[C@@H]21 [CEFOXITIN] | 1 (≈ 2.34 µM) | 1 (≈ 2.34 µM) | 1 (≈ 2.34 µM) | 1 (≈ 2.34 µM) | 2 (≈ 4.68 µM) | 2 (≈ 4.68 µM) | 1 (≈ 2.34 µM) | 2 (≈ 4.68 µM) |  |  |  |  |  |  |  |  |  |  | 2 (≈ 4.68 µM) | 2 (≈ 4.68 µM) | 
CO/N=C(\C(=O)N[C@@H]1C(=O)N2C(C(=O)O)=C(CSc3cnns3)CS[C@H]12)c1csc(N)n1 [CEFUZONAM] | < 0.125 | 16 (≈ 31.2 µM) | 1020 (≈ 1990 µM) | 2050 (≈ 3990 µM) | 64 (≈ 125 µM) | 2050 (≈ 3990 µM) | 256 (≈ 498 µM) | 2 (≈ 3.89 µM) | 5.7 | 190 | 630 | 260 | 550 | 2.8 | 2.1 ×10⁶ /s/M | 220 | 470 | 9.4 ×10⁵ /s/M | 1020 (≈ 1990 µM) | 512 (≈ 997 µM) | Km [17]: 220 µM; kcat [17]: 430 s⁻¹; Km [18]: 240 µM; kcat [18]: 560 s⁻¹; kcat/Km [19]: 2 ×10⁶ /s/M; kcat/Km [20]: 2.3 ×10⁶ /s/M; Km [21]: 140 µM; kcat [21]: 130 s⁻¹; kcat/Km [23]: 2.1 ×10⁶ /s/M; kcat/Km [24]: 3.3 ×10⁶ /s/M
O=C(Cc1cccs1)N[C@@H]1C(=O)N2C(C(=O)[O-])=C(C[n+]3ccccc3)CS[C@H]12 [CEPHALORIDINE] | 2 (≈ 4.81 µM) | 32 (≈ 77 µM) | 1020 (≈ 2460 µM) | 1020 (≈ 2460 µM) | 256 (≈ 616 µM) | 1020 (≈ 2460 µM) | 1020 (≈ 2460 µM) | 8 (≈ 19.3 µM) | 3 | 290 | 440 | 200 | 140 | 2.2 | 7.1 ×10⁵ /s/M | 430 | 470 | 1.2 ×10⁶ /s/M | 2050 (≈ 4930 µM) | 512 (≈ 1230 µM) | Km [25]: 450 µM; kcat [25]: 99 s⁻¹; Km [26]: 400 µM; kcat [26]: 120 s⁻¹; Km [17]: 250 µM; kcat [17]: 190 s⁻¹; Km [18]: 300 µM; kcat [18]: 300 s⁻¹; kcat/Km [19]: 7.6 ×10⁵ /s/M; kcat/Km [20]: 1 ×10⁶ /s/M; Km [21]: 270 µM; kcat [21]: 320 s⁻¹; kcat/Km [23]: 1.1 ×10⁶ /s/M; kcat/Km [24]: 1.5 ×10⁶ /s/M
